Tests used:
[1] = tested on: A375 human melanoma cell line; parameters: method as in PMID 28208804; conditions: cited from earlier work
[2] = tested on: SK-Mel-28 human melanoma cell line; parameters: method as in PMID 28208804; conditions: cited from earlier work
[3] = tested on: A549 human lung adenocarcinoma cells; parameters: method as in PMID 28520428, PMID 28941682; conditions: cited from earlier work
[4] = tested on: lipid peroxidation in human plasma; parameters: method as in PMID 28520428; conditions: cited from earlier work
[5] = tested on: HeLa human cervical adenocarcinoma cells; parameters: method as in PMID 28520428, PMID 28941682; conditions: cited from earlier work
PAMPA-BBB = assay type: in vitro ADME; conditions: pH 7.4, read-out: logPe PAMPA-BBB (n = 9) (converted)
Method: A parallel artificial membrane permeability assay (PAMPA) was used to determine the effective permeability (Pe) for the Carpinus diarylheptanoids. Stock solutions of the isolated compounds (10 mM in DMSO) were diluted with the defined buffer (pH 7.4 for the PAMPA-BBB and pH 6.8 for the PAMPA-GI assays) to obtain the donor solutions (composition: 297.0 μL buffer + 3.0 μL stock solution). Donor solutions were filtered through Phenex-RC 15 mm, 0.2 μm syringe filters (Gen-Lab Ltd., Budapest, Hungary).
For the PAMPA-BBB test, 5 μL of porcine polar brain lipid extract (PBLE) solution (16.0 mg PBLE + 8.0 mg cholesterol dissolved in 600.0 μL n-dodecane) was applied for each well of the 96-well polycarbonate-based filter donor plates (top plate) (Multiscreen™-IP, MAIPN4510, pore size 0.45 μm; Merck). […]
After the incubation, the plates were separated and the compound concentrations in the donor (CD(t)) and acceptor (CA(t)) solutions were determined using the aforementioned UHPLC-DAD method (see Section 3.4). […]
All experiments were performed in three triplicates on three consecutive days (n = 9); caffeine standard was used as positive, while rutin was used as negative control. Clog P values were calculated using ACD/ChemSketch (Freeware) 2 January 2020 (Advanced Chemistry Development, Inc., Toronto, ON, Canada).

Papp at 4 h, 100 µM (PAMPA-BBB)	Structure (SMILES)	cytotoxic concentration (not cytotoxic up to) [1]	cytotoxic concentration (not cytotoxic up to) [2]	IC50 [3]	lipid peroxidation induced by H2O2 (in words) [4]	IC50 [5]
	O=C1CCc2ccc(O)c(c2)-c2cc(ccc2O)C[C@H](O)[C@H](O)[C@H]1O [Compound 2, carpinontriol B]	> 1000 µM	> 1000 µM	> 100 µM	inhibited lipid peroxidation	> 100 µM
1.2 ×10⁻⁶ cm/s	O=C1CCc2ccc(O)c(c2)-c2cc(ccc2O)C[C@@H](O)[C@H](O)C1 [Compound 3, giffonin X]					
